The test system of assay [1] is PqsR (pqsA promoter, PA14 mCTX::PpqsA-lux). As to the kind of experiment: Whole cell biosensor reporter assay, PA14 mCTX::PpqsA-lux. In kind it is cell-based, Pseudomonas aeruginosa. The settings on record: Pseudomonas aeruginosa, PA14, read-out: PA14 Remaining Activity %. The procedure:
(§1) To determine the ability of the quinolines to inhibit PqsR functionality, the P. aeruginosa biosensor strains, PAO1-L and PA14, incorporating a chromosomal mCTX::PpqsA-lux transcriptional fusion, were used. These report on the activation of the pqsA promoter, regulated by PqsR [25]. PAO1-L and PA14 were chosen because they are genetically amenable and belong to the two major P. aeruginosa genomic groups. The quinolone compounds were incubated with the corresponding strain, and luminescence and optical density readings were recorded to monitor the effect of the quinolines on PqsR activity and bacterial growth, respectively. The compounds were screened at 10 µM concentration, and the activity was compared to a control of DMSO (0.1%) (Figure 3a). To be considered a hit, a threshold of at least 50% inhibition of the test compound, relative to the negative control had to be reached, without affecting bacterial growth. […] Concentration-response experiments were then carried out to determine the IC50 values (Figure 3b,c), which are summarised in Table 1.
(§2) Strains PA14 mCTX::PpqsA-lux and PAO1-L mCTX::PpqsA-lux were constructed using plasmid mini-CTX::PpqsA-lux, as previously described, and the assay was performed according to a published protocol. For screening, the compounds were tested at a concentration of 10 µM, which was prepared from a 10 mM stock, in DMSO.
In general terms: A reporter such as luciferase makes a cellular process visible.

Assay [2] deals with PqsR (pqsA promoter, PAO1-L mCTX::PpqsA-lux). As to the kind of experiment: Whole cell biosensor reporter assay, PAO1-L mCTX::PpqsA-lux. In kind it is cell-based, Pseudomonas aeruginosa. As to conditions: Pseudomonas aeruginosa, PAO1, read-out: PAO1-L Remaining Activity %. On the procedure: as §1, §2

The record followed here is article PMC6017655, “In Silico and in Vitro-Guided Identification of Inhibitors of Alkylquinolone-Dependent Quorum Sensing in Pseudomonas aeruginosa” (Molecules : A Journal of Synthetic Chemistry and Natural …, 2018).

Each structure is given as a SMILES string.

For `CC(=O)N1N=C(c2ccc(F)cc2)CC1c1cccc(Nc2ccnc3cc(C(F)(F)F)ccc23)c1` (stereo not drawn) [IIm], the activity at 10 µM in assay [1] came to 99.9 ± 3.17%; in assay [2], 90.2 ± 4.4%.
For `CC(=O)N1N=C(c2ccc(C)cc2)CC1c1cccc(Nc2ccnc3cc(C(F)(F)F)ccc23)c1` (stereo not drawn) [IIj] the same measures were 108 ± 6.05% and 97.3 ± 6.46%.
For `COc1cc(C2=NN(C=O)C(c3cccc(Nc4ccnc5cc(Cl)ccc45)c3)C2)cc(OC)c1OC` (stereo not drawn) [Id] the same measures were 110 ± 15% and 130 ± 5.04%.
Regarding `COc1ccc(C2=NN(C(C)=O)C(c3cccc(Nc4ccnc5cc(C(F)(F)F)ccc45)c3)C2)cc1` (stereo not drawn) [IIk], the activity at 10 µM in assay [1] is 118 ± 5.97%; in assay [2] it was 66.7 ± 0.42%.
For `COc1ccc(C2=NN(C(C)=O)C(c3cccc(Nc4ccnc5cc(Cl)ccc45)c3)C2)cc1` (stereo not drawn) [IIc] the same measures were 115 ± 2.13% and 120 ± 8.28%.
With `CC(=O)N1N=C(c2ccc(F)cc2)CC1c1cccc(Nc2ccnc3cc(Cl)ccc23)c1` (stereo not drawn) [IIe], the activity at 10 µM is 120 ± 1.59% in assay [1] and 82.6 ± 22.7% in assay [2].
For `COc1ccc(C2=NN(C=O)C(c3cccc(Nc4ccnc5cc(Cl)ccc45)c3)C2)cc1` (stereo not drawn) [Ic] the same measures were 102 ± 11.7% and 100 ± 8.46%.
Take `O=CN1N=C(c2ccc(F)cc2)CC1c1cccc(Nc2ccnc3cc(Cl)ccc23)c1` (stereo not drawn) [Ie]: the activity at 10 µM was found to be 70.4 ± 6.53% in assay [1] and 40.6 ± 3.71% in assay [2].
Turning to `CC(=O)N1N=C(c2ccc(Br)cc2)CC1c1cccc(Nc2ccnc3cc(C(F)(F)F)ccc23)c1` (stereo not drawn) [IIo], the activity at 10 µM in assay [1] is 95.6 ± 9.58%; in assay [2], 80.8 ± 5.06%.
For the compound `Cc1ccc(C2=NN(C=O)C(c3cccc(Nc4ccnc5cc(Cl)ccc45)c3)C2)cc1` (stereo not drawn) [Ib], the activity at 10 µM in assay [1] was found to be 78.4 ± 6.51%; in assay [2] it was 77 ± 2.25%.
In the case of `O=CN1N=C(c2ccc3c(c2)OCO3)CC1c1cccc(Nc2ccnc3cc(Cl)ccc23)c1` (stereo not drawn) [Ih], the activity at 10 µM in assay [1] is 85.8 ± 9.42%; in assay [2] it was 49.9 ± 12%.
Consider `COc1cc(C2=NN(C=O)C(c3cccc(Nc4ccnc5cc(C(F)(F)F)ccc45)c3)C2)cc(OC)c1OC` (stereo not drawn) [Il], for which the activity at 10 µM in assay [1] turned out to be 106 ± 15.3%; in assay [2] it was 85.8 ± 2.39%.
In the case of `O=CN1N=C(c2ccc(Cl)cc2)CC1c1cccc(Nc2ccnc3cc(C(F)(F)F)ccc23)c1` (stereo not drawn) [In], the activity at 10 µM was 93.6 ± 4.45% in assay [1] and 61.8 ± 3.97% in assay [2].
`Cc1ccc(C2=NN(C=O)C(c3cccc(Nc4ccnc5cc(C(F)(F)F)ccc45)c3)C2)cc1` (stereo not drawn) [Ij]: the activity at 10 µM turned out to be 84.9 ± 8.17% in assay [1] and 93.7 ± 6.15% in assay [2].
Turning to `CC(=O)N1N=C(c2ccc3c(c2)OCO3)CC1c1cccc(Nc2ccnc3cc(C(F)(F)F)ccc23)c1` (stereo not drawn) [IIp], the activity at 10 µM worked out at 99.6 ± 4.09% in assay [1] and 71.6 ± 5.07% in assay [2].
For `CC(=O)N1N=C(c2ccc(Br)cc2)CC1c1cccc(Nc2ccnc3cc(Cl)ccc23)c1` (stereo not drawn) [IIg] the same measures were 109 ± 2.79% and 63.7 ± 5.01%.
Regarding `CC(=O)N1N=C(c2ccc(Cl)cc2)CC1c1cccc(Nc2ccnc3cc(Cl)ccc23)c1` (stereo not drawn) [IIf], the figures for the activity at 10 µM in assay [1] and in assay [2] were 103 ± 4.91% and 90.2 ± 3.84%, respectively.
Consider `COc1cc(C2=NN(C(C)=O)C(c3cccc(Nc4ccnc5cc(C(F)(F)F)ccc45)c3)C2)cc(OC)c1OC` (stereo not drawn) [IIl], for which the activity at 10 µM was found to be 103 ± 4.84% in assay [1] and 86.1 ± 2.39% in assay [2].
Regarding `CC(=O)N1N=C(c2ccc(C)cc2)CC1c1cccc(Nc2ccnc3cc(Cl)ccc23)c1` (stereo not drawn) [IIb], the activity at 10 µM was determined as 96.2 ± 4.34% in assay [1] and 59.5 ± 1.86% in assay [2].
For `COc1cc(C2=NN(C(C)=O)C(c3cccc(Nc4ccnc5cc(Cl)ccc45)c3)C2)cc(OC)c1OC` (stereo not drawn) [IId], the activity at 10 µM came out at 110 ± 1.6% in assay [1] and 127 ± 9.69% in assay [2].
As to `COc1ccc(C2=NN(C=O)C(c3cccc(Nc4ccnc5cc(C(F)(F)F)ccc45)c3)C2)cc1` (stereo not drawn) [Ik], the activity at 10 µM is 99.7 ± 9.37% in assay [1] and 78.6 ± 5.75% in assay [2].
For `CC(=O)N1N=C(c2ccc3c(c2)OCO3)CC1c1cccc(Nc2ccnc3cc(Cl)ccc23)c1` (stereo not drawn) [IIh] the same measures were 115 ± 6.02% and 65.8 ± 5.63%.
For the compound `O=CN1N=C(c2ccc(F)cc2)CC1c1cccc(Nc2ccnc3cc(C(F)(F)F)ccc23)c1` (stereo not drawn) [Im], the activity at 10 µM in assay [1] amounted to 74.9 ± 8.28%; in assay [2], 65.1 ± 4.89%.
For `O=CN1N=C(c2ccc(Br)cc2)CC1c1cccc(Nc2ccnc3cc(C(F)(F)F)ccc23)c1` (stereo not drawn) [Io] the same measures were 80.6 ± 6.26% and 68.5 ± 3.43%.
`O=CN1N=C(c2ccc(Br)cc2)CC1c1cccc(Nc2ccnc3cc(Cl)ccc23)c1` (stereo not drawn) [Ig]: the activity at 10 µM in assay [1] was 94.8 ± 8.91%; in assay [2], 88.1 ± 6.05%.
For `O=CN1N=C(c2ccc3c(c2)OCO3)CC1c1cccc(Nc2ccnc3cc(C(F)(F)F)ccc23)c1` (stereo not drawn) [Ip] the same measures were 81.4 ± 9.36% and 84.3 ± 5.48%.
For `CC(=O)N1N=C(c2ccc(Cl)cc2)CC1c1cccc(Nc2ccnc3cc(C(F)(F)F)ccc23)c1` (stereo not drawn) [IIn] the same measures were 98.1 ± 11.4% and 97.8 ± 5.52%.
